Tests used:
[1] = test system: strychnine-insensitive glycine receptor; conditions: structure-activity relationships, literature; cited from earlier work
[2] = molecular target: T1, strychnine-insensitive Glycine receptor (Rattus norvegicus, UniProt P35439); assay: [3H]Glycine binding inhibition, Triton-washed rat forebrain synaptic plasma membranes (SPM); conditions: inhibition of 10 nM [3H]glycine binding, pH 7.4, 10 min at 2° C., nonspecific: 100 μM glycine, read-out: AFFINITY [3H]GLYCINE (Ki)
T1 construct: synaptic plasma membranes (SPM) prepared from rat forebrain; from tissue; host or cells: rat forebrain synaptic plasma membranes, male Sprague Dawley, 30-45 days old (animals from Sasco, St. Charles Mo.)
Description: (§1) [^3 H]Glycine binding was performed using Triton ×-100 washed synaptic plasma membranes (SPM) prepared from rat forebrain (30-45 day old, male Sprague Dawley; Sasco, St. Charles Mo.). The assay was initiated by the addition of 0.2-0.4 mg of SPM to an incubation containing 10 nM [^3 H]glycine (43.5 Ci/mmole; New England Nuclear, Boston Mass.), and various concentrations of the appropriate test compounds in a total volume of 1 ml, with all additions made in […] Tris/acetate, pH 7.4. Following a 10 min incubation at 2° C. the bound radioactivity was separated from the free by either centrifugation (12000 g for 25 min at 4° C.) or vacuum filtration through Whatman GF/B filters using a Brandel MB-18 Harvester. The Kd and Bmax values for [^3 H]glycine were similar using either separation technique. The radioactivity associated with the SPM was quantitated using liquid scintillation spectrometry. Ki values for the inhibition of [ ^3 H]glycine binding were determined using logit-log analysis, with nonspecific binding determined using 100 μM glycine. Modulation of [^3 H]TCP binding was performed using Triton ×-100 (0.04% v/v) treated rat SPM that had been extensively washed. Assay incubations were at 25° C. for 60 min and contained 5.0 nM [^3 H]TCP, and various concentrations of the test compound in 5 mM Tris/HCl, pH 7.4. The assay was stopped by rapid filtration, using a Brandel MB-48 Harvester, thru Whatman GF/B filters treated with 0.05% polyethylenimine and the samples washed four times with 2.0 mls cold buffer. Radioactivity associated with the filter was determined by liquid scintillation spectrometry as described above. Nonspecific binding was defined using 60 μM PCP.

human subjects = conditions: B. Saletu et al (1986); cited from earlier work
[3] = following milacemide administration; cited from earlier work
neurons = conditions: J. W. Olney (1969); J. W. Olney et al. (1971); cited from earlier work
[4] = test system: L-aspartate aminotransferase enzyme; conditions: R. R. Rando, Nature, 250, 587-588 (1974); cited from earlier work
NMDA receptor = molecular target: T2, NMDA receptor (Rattus norvegicus, UniProt P35439); assay: Modulation of [3H]TCP binding, Triton-treated, extensively washed rat SPM (functional analysis, agonist/antagonist character); type: biochemical; conditions: 1 h, 5.0 nM [3H]TCP, 25° C., 60 min, pH 7.4, % of maximal glycine stimulation, read-out: AG/ANTAG [3H]TCP % STIM
T2 construct: treated rat SPM that had been extensively washed; from tissue; host or cells: rat synaptic plasma membranes, Triton-treated and extensively washed
Description: as §1
*The stimulation of [^3 H]TCP binding (% STIM) was expressed as a […]

[5] = test system: bacterial methionine-γ-lyase; conditions: M. Johnson et al., Biochemistry, 20, 4325-4333 (1981); cited from earlier work

Q: For C[C@@H](N)C(=O)O [D-alanine], which “affinity at strychnine-insensitive glycine receptor (in words)” value [1] is on record?
A: Its value is “highest affinities”.

Q: For C/C=C/[C@@H](N)C(=O)O (stereo in doubt) [Compound 2, trans-D-2-amino-pent-3-enoic acid], which Ki [2] is on record?
A: The Ki was 4.8 µM.

Q: For CCCCCNCC(N)=O [milacemide], which memory-enhancing capabilities (human subjects) is on record?
A: Its memory-enhancing capabilities is “memory-enhancing capabilities”.

Q: And the brain glycine content [3]?
A: Its brain glycine content is “increase in brain glycine content”.

Q: For N[C@@H](CCC(=O)O)C(=O)O [glutamic acid], which “excitatory and excitotoxic properties” value (neurons) is on record?
A: The value was “both excitatory and excitotoxic properties”.

Q: Which “inhibition of L-aspartate aminotransferase” value [4] does the source give for CO/C=C/[C@H](N)C(=O)O (stereo in doubt) [L-2-amino-4-methoxy-trans-3-butenoic acid] here?
A: The value was “irreversible inhibitor”.

Q: What does the source list for CCCCCC/C=C/[C@@H](N)C(=O)O (stereo in doubt) [Compound 6, trans-D-2-amino-dec-3-enoic acid]?
A: Emax at 100 µM (NMDA receptor; CONC 100 (μ)): 48%; Ki [2]: 55 µM

Q: For N[C@H](/C=C/CCO)C(=O)O (stereo in doubt) [Compound 7, trans-D-2-amino--6-hydroxy-hex-3-enoic acid], which Emax at 6 µM (NMDA receptor; CONC 6 (μ)) is on record?
A: Its Emax at 6 µM is 67%.

Q: And the Ki [2]?
A: The Ki was 0.28 µM.

Q: For CCC/C=C/[C@H](N)C(=O)O (stereo in doubt) [Compound 3, trans-L-2-amino-hept-3-enoic acid], which Emax at 12 µM (NMDA receptor; CONC 12 (μ)) is on record?
A: The Emax at 12 µM was 66%.

Q: And the Ki [2]?
A: The Ki was 4.9 µM.

Q: Which Ki [2] does the source give for N[C@@H](/C=C/CCO)C(=O)O (stereo in doubt) [Compound 8, trans-L-2-amino-6-hydroxy-hex-3-enoic acid] here?
A: Its Ki is 0.77 µM.

Q: With N[C@@H](CC(=O)O)C(=O)O [aspartic, aspartic acid] as the molecule, how does the “excitatory and excitotoxic properties” value (neurons) read?
A: The value was “both excitatory and excitotoxic properties”.

Q: Which Emax at 30 µM (NMDA receptor; CONC 30 (μ)) does the source give for CCCCCC/C=C/[C@H](N)C(=O)O (stereo in doubt) [Compound 5, trans-L-2-amino-dec-3-enoic acid] here?
A: The Emax at 30 µM was 78%.

Q: What about the Ki [2] of the same molecule?
A: Its Ki is 0.95 µM.

Q: With C/C=C/[C@H](N)C(=O)O (stereo in doubt) [Compound 1, trans-L-2-amino-pent-3-enoic acid] as the molecule, how does the Emax at 40 µM (NMDA receptor; CONC 40 (μ)) read?
A: The Emax at 40 µM was 51%.

Q: And the Ki [2]?
A: The Ki was 7.2 µM.

Q: And the “inhibition of bacterial methionine-γ-lyase” value [5]?
A: Its value is “inhibition of bacterial methionine-γ-lyase”.

Q: For N[C@H](CO)C(=O)O [D-serine], which “affinity at strychnine-insensitive glycine receptor (in words)” value [1] is on record?
A: The value was “highest affinities”.

Q: Which Ki [2] does the source give for CCC/C=C/[C@@H](N)C(=O)O (stereo in doubt) [Compound 4, trans-D-2-amino-hept-3-enoic acid] here?
A: Its Ki is 1.8 µM.

Source: US5208260A, “Vinyl Glycine derivatives for memory and learning enhancement or treatment of a cognitive disorder” (priority 1990, dated 1993)
